# Results: PubChem BioAssay (NCI)
# Values joined by “and” are separate entries in the source; they are usually repeats but may differ in a detail not shown here. Equal values may be shown once.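 These data come from cells grown in 96-well plates and exposed to compound for 48 hours at five concentrations. At the GI50, growth is halved. TGI denotes the concentration required for complete inhibition of growth.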
# Key:
# Experiment in all cases: NCI anticancer screen, dose series, 48 h
# [1] = system: T-47D breast
# [2] = system: EKVX NSCLC
# [3] = system: OVCAR-5 ovarian
# [4] = system: IGROV1 ovarian
# [5] = system: CAKI-1 renal
# [6] = system: CCRF-CEM leukemia
# [7] = system: 786-0 renal
# [8] = system: HOP-62 NSCLC
# [9] = system: SK-MEL-5 melanoma
# [10] = system: HOP-92 NSCLC
SMILES,GI50 [1] [µM],TGI [2] [µM],TGI [3] [µM],TGI [4] [µM],GI50 [5] [µM],TGI [5],GI50 [6] [µM],TGI [6],GI50 [7] [µM],TGI [7],TGI [8] [µM],TGI [9] [µM],TGI [10] [µM],TGI [1] [µM],GI50 [2] [µM],GI50 [3] [µM],GI50 [4] [µM],GI50 [8] [µM],GI50 [9] [µM],GI50 [10] [µM]
C[N+](C)(C)CC1CCCc2ccccc2C1=O (stereo not drawn),19.1,14.5,28.8,31.7,2.06,6.71 µM and 5.04 µM,0.42,5.77 µM and 1.11 µM,8.46,6.44 µM and 21.7 µM,34.3,15.5,26.7,,,,,,,
CCOC(=O)c1ccc(NC(=O)Oc2ccc3c(C)cc(=O)oc3c2)cc1,,> 100,> 100,> 100,,> 100 µM,,58.4 µM,,> 100 µM,98.6,29.1,54.1,78,,,,,,
CC(=O)N(C(C)=O)c1ncc(-n2nc(-c3ccccc3)cc2-c2ccccc2)c(-c2ccccc2)n1,,> 10,> 10,> 10,,> 10 µM,,> 10 µM,,> 10 µM,> 10,> 10,> 10,> 10,,,,,,
CC(=O)OC1COC(Oc2c(C)c3c4c(c2O)[C@@H](C)CC[C@@H]4[C@@H](C)C[C@H]3C=C(C)C)C(O)C1OC(C)=O (stereo partly drawn),20.1,45.5,30.1,28.8,12.6,26.3 µM,12,33.4 µM,16.4,31.8 µM,36.1,52.7,35.1,56.4,22.6,15.5,13.4,20,24.7,16.3
COc1ccc(/C=C\[N+](=O)[O-])cc1OC,7.6,38.1,19.3,4.46,1.8,4.84 µM,3.2,22.7 µM,1.9,3.87 µM,29.2,14.4,48.4,38.2,15.6,4.51,1.82,12,3.72,12.4
CO/N=C(\C(=O)OC(=NC1CCCCC1)NC1CCCCC1)c1csc(NC(c2ccccc2)(c2ccccc2)c2ccccc2)n1,,> 10,> 10,> 10,,> 10 µM,,> 10 µM,,> 10 µM,> 10,> 10,> 10,> 10,,,,,,
COc1ccc(OC)c2c1[nH]c(=O)c1c3ccccc3cn21,1.3,3.76,3.69,1.43,1.09,2.39 µM,1.17,3.81 µM,1.88,3.34 µM,3.18,2.93,3.31,4.07,1.34,1.87,< 0.0281,1.52,1.53,1.5
C/C=C(\C)C(=O)O[C@H]1C=CC(=O)O[C@H]1CCC(=O)[C@H](C)O,10.4,33.6,50.8,46.8,7.16,17.3 µM,0.014,9.1 µM,14.9,30.1 µM,48.2,27.1,28.3,32.3,17.8,22.4,22,22.5,13.8,14.3
